# Reference: US20260130933A1, “PHARMACEUTICAL COMPOSITION FOR PREVENTION OR TREATMENT OF NEPHROPATHY AND/OR DIABETES MELLITUS, COMPRISING ENAVOGLIFLOZIN” (DAEWOONG PHARMACEUTICAL CO., LTD., priority 2022, published 2026)
# Experiment: Example 2: phase 3 trial, enavogliflozin 0.3 mg vs dapagliflozin 10 mg once a day for 24 weeks added to metformin in patients with type 2 diabetes (same efficacy, exploratory and safety endpoints)
# Type: in vivo, human
# Protocol: Subjects who met the inclusion/exclusion criteria were administered a placebo of the clinical trial drug under single-blind (subject blinding) conditions during a 2-week run-in period while continuing to receive metformin. […] The randomized subjects were administered two tablets of the clinical trial drug for each administration group once a day, and then visited the institution at weeks 6, 12, 18, and 24 during the 24-week administration period to conduct efficacy and safety evaluations.
# • 1. Change in HbA1c at week 24 after administration of clinical trial drug compared to Visit 2 (randomization)
# • 1. Change in HbA1c at each time point of weeks 6, 12, and 18 after administration of clinical trial drug compared to Visit 2 (randomization) • 2. Change in FPG at each time point of weeks 6, 12, 18, and 24 after administration of clinical trial drug compared to Visit 2 (randomization) • 3. Proportion of subjects achieving HbA1c<7% at each time point of weeks 6, 12, 18, and 24 after administration of clinical trial drug • 4. Proportion of subjects achieving HbA1c<6.5% at each time point of weeks 6, 12, 18, and 24 after administration of clinical trial drug • 5. Proportion of subjects achieving therapeutic response (HbA1c change (HbA1c at Visit 2-HbA1c at each evaluation time point)>0.5% or HbA1c<7% at each evaluation time point compared to Visit 2 (randomization)) at each time point of weeks 6, 12, 18 and 24 after administration of clinical trial drug
# • 1. Change in fasting c-peptide at each time point of weeks 6, 12, 18, and 24 after administration of clinical trial drug compared to Visit 2 (randomization) • 2. Change in body weight at each time point of weeks 6, 12, 18, and 24 after administration of clinical trial drug compared to Visit 2 (randomization) • 3. Change in fasting lipid concentration (total cholesterol, LDL-C, HDL-C, and triglycerides) at each time point of weeks 6, 12, 18, and 24 after administration of clinical trial drug compared to Visit 2 (randomization) • 4. Changes in systolic or diastolic blood pressure at each time point of weeks 6, 12, 18, and 24 after administration of clinical trial drug compared to Visit 2 (randomization) • 5. Changes in β-cell function and insulin resistance measured by HOMA-β and HOMA-IR at each time point of weeks 6, 12, 18, and 24 after administration of clinical trial drug compared to Visit 2 (randomization) • 6. Changes in renal function-related indicators (UACR, UGCR) measured by UACR at each time point of weeks 6, 12, 18, and 24 after administration of clinical trial drug compared to Visit 2 (randomization) • 7. Changes in obesity-related indicators (adiponectin, leptin) at each time point of weeks 6, 12, 18, and 24 after administration of clinical trial drug compared to Visit 2 (randomization)
# [1] = Week 18, mPPS1, enavogliflozin minus dapagliflozin
# [2] = Week 18, mPPS2, enavogliflozin minus dapagliflozin
# [3] = Week 24, PPS, enavogliflozin minus dapagliflozin
structure (smiles),measurement,setting,value
"OC[C@H]1O[C@@H](c2cc(Cc3ccc(C4CC4)cc3)c(Cl)c3c2CCO3)[C@H](O)[C@@H](O)[C@@H]1O [Enavogliflozin, (2S,3R,4R,5S,6R)-2-(7-chloro-6 (4-cyclopropylbenzyl)-2,3-dihydrobenzofuran-4-yl)-6-(hydroxymethyl)tetrahydro-2H-pyran-3,4,5-triol]","LDL-C, Mean (SD)","Week 18, mPPS1",85.75(29.78) mg/dL
same,"LDL-C, Median","Week 18, mPPS1",77.50 mg/dL
same,"Triglycerides change from baseline, ANCOVA LS mean (SE)","Week 18, mPPS1",−4.99(5.99) mg/dL
same,"Triglycerides change from baseline, Mean (SD)","Week 18, mPPS1",−2.70(78.86) mg/dL
same,"Triglycerides change from baseline, Median","Week 18, mPPS1",-2.50 mg/dL
same,"Triglycerides, Mean (SD)","Week 18, mPPS1",118.10(55.93) mg/dL
same,"Triglycerides, Median","Week 18, mPPS1",108.00 mg/dL
same,"HDL-C change from baseline, LS mean difference",[1],-0.62 mg/dL
same,"LDL-C change from baseline, LS mean difference",[1],-1.15 mg/dL
same,"triglycerides change from baseline, LS mean difference",[1],-6.87 mg/dL
same,"Diastolic blood pressure change from baseline, ANCOVA LS mean (SE)","Week 18, mPPS2",−4.80 mmHg
same,"Diastolic blood pressure change from baseline, Mean (SD)","Week 18, mPPS2",−5.05 mmHg
same,"Diastolic blood pressure change from baseline, Median","Week 18, mPPS2",−5.00 mmHg
same,"Diastolic blood pressure, Mean (SD)","Week 18, mPPS2",71.85 mmHg
same,"Diastolic blood pressure, Median","Week 18, mPPS2",71.00 mmHg
same,"Systolic blood pressure change from baseline, ANCOVA LS mean (SE)","Week 18, mPPS2",−6.69(1.12) mmHg
same,"Systolic blood pressure change from baseline, Mean (SD)","Week 18, mPPS2",−7.04(10.51) mmHg
same,"Systolic blood pressure change from baseline, Median","Week 18, mPPS2",−9.00 mmHg
same,"Systolic blood pressure, Mean (SD)","Week 18, mPPS2",122.70(12.89) mmHg
same,"Systolic blood pressure, Median","Week 18, mPPS2",122.00 mmHg
same,"diastolic blood pressure change from baseline, LS mean difference",[2],−0.70 mmHg
same,"systolic blood pressure change from baseline, LS mean difference",[2],−0.72 mmHg
same,"Adiponectin change from baseline, ANCOVA LS mean (SE)","Week 24, PPS",1.67 µg/mL
same,"Adiponectin change from baseline, Mean (SD)","Week 24, PPS",1.72 µg/mL
same,"Adiponectin change from baseline, Median","Week 24, PPS",1.21 µg/mL
same,"Adiponectin, Mean (SD)","Week 24, PPS",8.68 µg/mL
same,"Adiponectin, Median","Week 24, PPS",7.64 µg/mL
same,"HOMA-IR change from baseline, ANCOVA LS mean (SE)","Week 24, PPS",−1.85
same,"HOMA-IR change from baseline, Mean (SD)","Week 24, PPS",−1.69
same,"HOMA-IR change from baseline, Median","Week 24, PPS",−1.06
same,"HOMA-IR, Mean (SD)","Week 24, PPS",1.76
same,"HOMA-IR, Median","Week 24, PPS",1.48
same,"HOMA-β change from baseline, ANCOVA LS mean (SE)","Week 24, PPS",6.94
same,"HOMA-β change from baseline, Mean (SD)","Week 24, PPS",6.80
same,"HOMA-β change from baseline, Median","Week 24, PPS",4.00
same,"HOMA-β, Mean (SD)","Week 24, PPS",52.32
same,"HOMA-β, Median","Week 24, PPS",42.00
same,"Leptin change from baseline, ANCOVA LS mean (SE)","Week 24, PPS",-2.40 ng/mL
same,"Leptin change from baseline, Mean (SD)","Week 24, PPS",-2.53 ng/mL
same,"Leptin change from baseline, Median","Week 24, PPS",-1.77 ng/mL
same,"Leptin, Mean (SD)","Week 24, PPS",9.68 ng/mL
same,"Leptin, Median","Week 24, PPS",7.45 ng/mL
same,"UACR change from baseline, ANCOVA LS mean (SE)","Week 24, PPS",-24.29 g/kg
same,"UACR change from baseline, Mean (SD)","Week 24, PPS",-18270 mg/kg
same,"UACR change from baseline, Median","Week 24, PPS",-1.10 g/kg
same,"UACR, Mean (SD)","Week 24, PPS",19930 mg/kg
same,"UACR, Median","Week 24, PPS",10.20 g/kg
same,"UGCR change from baseline, ANCOVA LS mean (SE)","Week 24, PPS",60.48 mg/mg
same,"UGCR change from baseline, Mean (SD)","Week 24, PPS",58.90 mg/mg
same,"UGCR change from baseline, Median","Week 24, PPS",56.43 mg/mg
same,"UGCR, Mean (SD)","Week 24, PPS",60.43 mg/mg
same,"UGCR, Median","Week 24, PPS",57.88 mg/mg
same,"HOMA-IR change from baseline, LS mean difference",[3],−0.53
same,"HOMA-β change from baseline, LS mean difference",[3],−4.99
same,"UACR change from baseline, LS mean difference",[3],-6.93 g/kg
same,"UGCR change from baseline, LS mean difference",[3],15.54 mg/mg
same,"leptin change from baseline, LS mean difference",[3],-1.12 ng/mL
same,"HDL-C change from baseline, ANCOVA LS mean (SE)","Week 24, mPPS1",3.06(0.64) mg/dL
same,"HDL-C change from baseline, Mean (SD)","Week 24, mPPS1",2.75(6.70) mg/dL
same,"HDL-C change from baseline, Median","Week 24, mPPS1",3.00 mg/dL
same,"HDL-C, Mean (SD)","Week 24, mPPS1",53.69(10.72) mg/dL
same,"HDL-C, Median","Week 24, mPPS1",53.00 mg/dL
same,"LDL-C change from baseline, ANCOVA LS mean (SE)","Week 24, mPPS1",1.64(1.92) mg/dL
same,"LDL-C change from baseline, Mean (SD)","Week 24, mPPS1",0.88(17.04) mg/dL
same,"LDL-C change from baseline, Median","Week 24, mPPS1",3.00 mg/dL
same,"LDL-C, Mean (SD)","Week 24, mPPS1",87.40(29.52) mg/dL
same,"LDL-C, Median","Week 24, mPPS1",84.00 mg/dL
same,"Triglycerides change from baseline, ANCOVA LS mean (SE)","Week 24, mPPS1",−5.07(5.14) mg/dL
same,"Triglycerides change from baseline, Mean (SD)","Week 24, mPPS1",−2.47(76.88) mg/dL
same,"Triglycerides change from baseline, Median","Week 24, mPPS1",0.00 mg/dL
